What all share (type): functional
The subject of assay [1] is Escherichia coli. In words: Potentiation of cefepime-induced antibacterial activity against Escherichia coli AG100 assessed as cefepime MIC at 0.4 ug/ml after 18 hrs (reference value: 0.5 ug/ml). As to conditions: AG100, 18 h.
The test system of assay [2] is Pseudomonas aeruginosa. In words: Potentiation of cefepime-induced antibacterial activity against Pseudomonas aeruginosa PAO1 assessed as cefepime MIC at 3.2 ug/ml after 18 hrs (reference value: 8 ug/ml). The conditions noted are these: PAO1, 18 h.
Assay [3] concerns Escherichia coli. The assay is described as follows: Potentiation of erythromycin-induced antibacterial activity against Escherichia coli AG100 assessed as erythromycin MIC at 0.4 ug/ml after 18 hrs (reference value: 512 ug/ml). The conditions noted are these: AG100, 18 h.
Assay [4] concerns Pseudomonas aeruginosa. In words: Potentiation of tetracycline-induced antibacterial activity against Pseudomonas aeruginosa PAO1 assessed as tetracycline MIC at 3.2 ug/ml after 18 hrs (reference value: 16 ug/ml). As to conditions: PAO1, 18 h.
For assay [5], the system named is Pseudomonas aeruginosa. In words: Potentiation of chloramphenicol-induced antibacterial activity against Pseudomonas aeruginosa PAO1 assessed as chloramphenicol MIC at 3.2 ug/ml after 18 hrs (reference value: 512 ug/ml). The conditions noted are these: PAO1, 18 h.
Assay [6] deals with Escherichia coli. In words: Potentiation of ciprofloxacin-induced antibacterial activity against Escherichia coli AG100 assessed as ciprofloxacin MIC at 0.4 ug/ml after 18 hrs (reference value: 0.25 ug/ml). As to conditions: AG100, 18 h.
Assay [7] relates to Klebsiella aerogenes. In words: Potentiation of erythromycin-induced antibacterial activity against Enterobacter aerogenes ATCC 13048 assessed as erythromycin MIC at 1.6 ug/ml after 18 hrs (reference value: 512 ug/ml). The conditions noted are these: ATCC 13048, 18 h.
For assay [8], the system named is Klebsiella aerogenes. The assay is described as follows: Potentiation of chloramphenicol-induced antibacterial activity against Enterobacter aerogenes ATCC 13048 assessed as chloramphenicol MIC at 1.6 ug/ml after 18 hrs (reference value: 4 ug/ml). The conditions noted are these: ATCC 13048, 18 h.
In assay [9] the test system is Klebsiella aerogenes. In words: Potentiation of tetracycline-induced antibacterial activity against Enterobacter aerogenes ATCC 13048 assessed as tetracycline MIC at 1.6 ug/ml after 18 hrs (reference value: 2 ug/ml). The conditions noted are these: ATCC 13048, 18 h.
The subject of assay [10] is Escherichia coli. The assay is described as follows: Potentiation of tetracycline-induced antibacterial activity against Escherichia coli AG100 assessed as tetracycline MIC at 0.4 ug/ml after 18 hrs (reference value: 2 ug/ml). As to conditions: AG100, 18 h.
Assay [11] concerns Klebsiella aerogenes. In words: Potentiation of ciprofloxacin-induced antibacterial activity against Enterobacter aerogenes ATCC 13048 assessed as ciprofloxacin MIC at 1.6 ug/ml after 18 hrs (reference value: 0.5 ug/ml). The conditions noted are these: ATCC 13048, 18 h.
In assay [12] the test system is Pseudomonas aeruginosa. In words: Potentiation of ciprofloxacin-induced antibacterial activity against Pseudomonas aeruginosa PAO1 assessed as ciprofloxacin MIC at 3.2 ug/ml after 18 hrs (reference value: 16 ug/ml). The conditions noted are these: PAO1, 18 h.
For assay [13], the system named is Klebsiella aerogenes. In words: Potentiation of cefepime-induced antibacterial activity against Enterobacter aerogenes ATCC 13048 assessed as cefepime MIC at 1.6 ug/ml after 18 hrs (reference value: 0.25 ug/ml). The conditions noted are these: ATCC 13048, 18 h.
For assay [14], the system named is Escherichia coli. The assay is described as follows: Potentiation of chloramphenicol-induced antibacterial activity against Escherichia coli AG100 assessed as chloramphenicol MIC at 0.4 ug/ml after 18 hrs (reference value: 8 ug/ml). The conditions noted are these: AG100, 18 h.
Assay [15] relates to Pseudomonas aeruginosa. In words: Potentiation of erythromycin-induced antibacterial activity against Pseudomonas aeruginosa PAO1 assessed as erythromycin MIC at 3.2 ug/ml after 18 hrs (reference value: 512 ug/ml). The conditions noted are these: PAO1, 18 h.
Assay [16] has as its system Pseudomonas aeruginosa. In words: Potentiation of doxycycline-induced antibacterial activity against Pseudomonas aeruginosa PAO1 assessed as doxycycline MIC at 2 ug/ml after 24 hrs by broth microdilution method (reference value: 16 ug/ml). As to conditions: PAO1, 24 h. (Broth dilution looks for growth in wells or tubes with falling amounts of substance.)
Assay [17] has as its system Klebsiella aerogenes. In words: Potentiation of doxycycline-induced antibacterial activity against Enterobacter aerogenes EA289 assessed as doxycycline MIC at 2 ug/ml after 24 hrs by broth microdilution method (reference value: 40 ug/ml). The conditions noted are these: EA289, 24 h.
Assay [18] concerns Klebsiella pneumoniae. In words: Potentiation of doxycycline-induced antibacterial activity against Klebsiella pneumoniae KPC2 assessed as doxycycline MIC at 2.5 uM after 18 hrs (reference value: 10 ug/ml). As to conditions: KPC2, 18 h.
The subject of assay [19] is Klebsiella aerogenes. In words: Potentiation of doxycycline-induced antibacterial activity against Enterobacter aerogenes EA289 assessed as doxycycline MIC at 5 uM after 18 hrs (reference value: 40 ug/ml). As to conditions: EA289, 18 h.
Assay [20] deals with Pseudomonas aeruginosa. The assay is described as follows: Potentiation of doxycycline-induced antibacterial activity against Pseudomonas aeruginosa PAO1 assessed as doxycycline MIC at 1.25 uM after 18 hrs (reference value: 20 ug/ml). The conditions noted are these: PAO1, 18 h.
The test system of assay [21] is Pseudomonas aeruginosa. The assay is described as follows: Synergistic antibacterial activity against Pseudomonas aeruginosa assessed as fractional inhibitory concentration index in presence of doxycycline after 18 hrs by checkerboard assay.
The subject of assay [22] is Pseudomonas aeruginosa. The assay is described as follows: Potentiation of doxycycline-induced antibacterial activity against Pseudomonas aeruginosa PAO1 assessed as doxycycline MIC at 1.22 ug/ml by broth micro-dilution method (reference value: 32 ug/ml).
The test system of assay [23] is Pseudomonas aeruginosa. The assay is described as follows: Potentiation of doxycycline-induced antibacterial activity against Pseudomonas aeruginosa PAO1 assessed as doxycycline MIC at 2.5 uM after 18 hrs (reference value: 20 ug/ml). As to conditions: PAO1, 18 h.
Assay [24] relates to Klebsiella aerogenes. The assay is described as follows: Potentiation of doxycycline-induced antibacterial activity against Enterobacter aerogenes EA289 assessed as doxycycline MIC at 2.5 uM after 18 hrs (reference value: 40 ug/ml). As to conditions: EA289, 18 h.
Assay [25] has as its system Escherichia coli. The assay is described as follows: Potentiation of erythromycin-induced antibacterial activity against Escherichia coli W3110 assessed as erythromycin MIC at 64 ug/ml after 20 hrs by liquid microdilution method (reference value: 64 ug/ml). The conditions noted are these: K-12 substr. W3110, 20 h.
Assay [26] has as its system Escherichia coli. In words: Potentiation of novobiocin-induced antibacterial activity against Escherichia coli W3110 assessed as novobiocin MIC at 64 ug/ml after 20 hrs by liquid microdilution method (reference value: 128 ug/ml). The conditions noted are these: K-12 substr. W3110, 20 h.
Assay [27] deals with Escherichia coli. The assay is described as follows: Potentiation of novobiocin-induced antibacterial activity against Escherichia coli W3110 assessed as novobiocin MIC at 8 ug/ml after 20 hrs by liquid microdilution method (reference value: 128 ug/ml). As to conditions: K-12 substr. W3110, 20 h.
Assay [28] has as its system Escherichia coli. The assay is described as follows: Potentiation of erythromycin-induced antibacterial activity against Escherichia coli W3110 assessed as erythromycin MIC at 8 ug/ml after 20 hrs by liquid microdilution method (reference value: 64 ug/ml). As to conditions: K-12 substr. W3110, 20 h.

Structures are written as SMILES. Where only a bound is given, the exact number is not on record here.

From ChEMBL document CHEMBL4376806, “Antibiotic Adjuvants: Make Antibiotics Great Again!” (2019) come the findings set out here.

For orientation: MIC means the smallest concentration in the dilution series that meets the test's criterion for growth inhibition. `CC(C)[C@@H](CC[C@@H](C)[C@H]1CC[C@H]2[C@@H]3[C@H](O)C[C@H]4C[C@@H](NCCCNCCCCN)CC[C@]4(C)[C@H]3CC[C@]12C)OS(=O)(=O)O` [SQUALAMINE]: the MIC turned out to be 0.06 µg/mL in assay [1]; 1 µg/mL in assay [2]; 256 µg/mL in assay [3]; 4 µg/mL in assay [4]; 16 µg/mL in [5]; 0.03 µg/mL in assay [6]. Further, the MIC in assay [7] is 128 µg/mL; in assay [8] it was 0.25 µg/mL; in [9], 0.25 µg/mL; in [10], 0.125 µg/mL; in assay [11] it was 0.015 µg/mL; in [12], below 1 µg/mL. Also, the MIC in assay [13] came out at 0.03 µg/mL; in [14], 0.5 µg/mL; in [15] it was 256 µg/mL.
Consider `CC(C)OC(=O)CC[C@@H](C)[C@H]1CC[C@H]2[C@@H]3CC[C@H]4C[C@@H](NCCCNCCCNCCCCNCCCN)CC[C@]4(C)[C@H]3C[C@H](O)[C@]12C`, for which the MIC in [16] is 2 µg/mL; in assay [17] it was 0.5 µg/mL.
With `Cl.Cl.Cl.NCCCCNCCCCNC1CCCCCCCCCCCCCC1`, the MIC in assay [18], in assay [19] and in [20] was 2 µg/mL each time.
`CC(C)=C/C=C\C(C)=C/CC/C(C)=C/CNCCCNCCCCNCCCN.Cl.Cl.Cl.Cl`: in [21], the “fractional inhibitory concentration index (FICI)” value was 0.09. The MIC in assay [22] worked out at 2 µg/mL.
Turning to `Cl.Cl.Cl.NCCCNCCCNC1CCCCCCCCCCCCCC1`, the MIC in [23], in assay [18] and in assay [24] was 2 µg/mL each time.
For the compound `Cl.Cl.Cl.Cl.NCCCNCCCCNCCCNC(=O)Cc1cccc2ccccc12`, the MIC stood at 4 µg/mL in assay [25] and 1 µg/mL in assay [26].
For the compound `COc1ccccc1CNCCCCCCNCCCCCCCCNCCCCCCNCc1ccccc1OC` [METHOCTRAMINE], the MIC in assay [27] and in assay [28] was 16 µg/mL in each case.
